# From patent US11767298B2, “Substituted benzimidazoles as inhibitors of transforming growth factor-β kinase” (Duke University, priority 2016, dated 2023)
# Entries after “also recorded” stand apart in the source; their conditions may differ.
# How the values were obtained:
# [1] = system: PfPK9; experiment: UBC13 phosphorylation by PfPK9 (ADP luminescence assay); assay type: biochemical, P. falciparum; details: compared to DMSO
# Protocol: Recombinant protein expression and enzyme activity assay. Recombinant GST-tagged PfPK9 was expressed in E. coli BL21(DE3) cells, purified to homogeneity, and the GST tag was cleaved with PreScission Protease (GE Healthcare). To test for inhibition of PfPK9, the ADP detection assay ADP-Glo (Promega) was used to determine ATPase activity of PfPK9 in the presence of the PfUBC13 protein substrate when treated with compounds 1 and 5. Approximately 500 nM PfPK9 was incubated with either compound (10 μM or 500 μM) for 5 min at RT in buffer containing 40 mM Tris, pH 7.5, 20 mM MgCl2, 2 mM MnCl2 and 1 mM DTT prior to assay initiation with 100 μM ATP. The assay was performed in white low-volume 384-well plates (Corning #3824) in triplicate. The assay plate was sealed and subsequently incubated for 8 hrs at 37° C. before ADP detection per manufacturer instructions. The final assay volume was 5 μL with a final concentration of 1% DMSO. A negative control was performed in 1% DMSO and heat inactivated PfPK9 (80° C. for 5 min) was used as a positive control. The luminescence intensity in each well was measured on an EnVision system. Data were normalized to the average luminescence signal of the negative control to provide relative ADP concentrations and graphs were constructed in GraphPad Prism. Data analyses were conducted from three independent experiments. […]
# [2] = system: P. berghei EEFs; experiment: Immunofluorescence analysis of P. berghei EEFs in Huh7 cells; assay type: cell-based
# Protocol: Immunofluorescence analysis of EEFs. For immunofluorescence analysis of EEFs, Huh7 cells were fixed with 4% paraformaldehyde for 10 min at room temperature (RT), washed thrice with PBS, permeabilized with cooled methanol for 10 min at −20° C. and blocked with 3% BSA in PBS for 30 min at RT. Thereafter, cells were incubated with a primary antibody, mouse anti-PbHSP70 (clone 2E6 1:1000) diluted in blocking buffer overnight at 4° C. Following incubation, samples were washed with PBS and incubated for 1 hr at RT with a secondary antibody, goat anti-mouse AlexaFluor 488 (1:400, Life Technologies). Finally, nuclei were stained with DAPI for 15 min at RT. For evaluation of fluorescence intensity from EEFs after infection with GFP-expressing P. berghei sporozoites, DAPI nucleus staining was performed following cell fixation. After five washes with PBS, ˜40 μl PBS was left in wells and images were acquired on a Zeiss Axio Observer widefield fluorescence microscope.
# To further investigate the effect of compound 1 during malaria's liver stage, immunofluorescence assays were performed. Infected Huh7 cells were treated with 10 μM or 30 μM compound 1 for various period of time ranging from 0-24 h post-infection (hpi), 24-48 hpi and 0-48 hpi, and subsequently labeled with P. berghei HSP70 antibodies at 48 hpi. […] EEF size as compared to DMSO treated cells at all time periods tested (One-way ANOVA P<0.0001). The number of P.b. EEFs was not affected by 10 μM compound 1 as compared to DMSO treatment (FIG. 4B; One-way ANOVA P=0.0804). Similarly, treatment of infected cells with 30 μM compound 1 led to increased P.b. EEF size when added either for 0-24 hpi or 24-48 hpi. (FIGS. 4C and 4E; One-way ANOVA P<0.0001). […] Moreover, total fluorescence signal from GFP-expressing P.b. EEFs decreased with compound 1 when added for a period of 48 h post-infection. […] EEF size was increased by 10 μM compound 1 as compared to DMSO treated cells.
# [3] = system: K63-linked ubiquitination; experiment: Western blot for K63-linked ubiquitination in Plasmodium blood stage; assay type: cell-based, P. falciparum; details: 0.001-100 μM, 24 hr, ring-stage blood stage parasites
# Protocol: P. falciparum asexual blood-stage culture. P. falciparum 3D7 isolate was maintained under standard conditions in complete culturing medium [10.44 g/L RPMI 1640 (Invitrogen), 5.94 g/L HEPES (Invitrogen), 50 mg/L hypoxanthine (Sigma), 2.02 g/L sodium bicarbonate (Sigma), 5 g/L albuMAX II (Invitrogen), 25 mg/L gentamicin (Sigma), pH 7.2]. Parasite cultures were supplied with human red blood cells (Gulf Coast Regional Blood Center) at 1% hematocrit. To obtain synchronous cultures, Plasmodium parasites (at least 50% parasites were at the early-ring stage) were pelleted at 300×g for 7 min using a low brake setting and treated with 25 volume 5% D-sorbitol (Sigma) at 37° C. for 10 min. Treated parasites were then harvested and washed with 25 volume of complete culturing medium using the aforementioned centrifugation protocol, and diluted with the complete medium to 1% hematocrit to maintain the parasite culture at 37° C. and 5% CO2.
# Protein extraction and Western blot for K63-linked ubiquitination in Plasmodium blood stage. […] Total protein lysates were heated in SDS loading buffer for 5 min at 80° C., analyzed on 4-20% Tris-Glycine polyacrylamide gels (Novex, Life Technologies) and subsequently transferred to nitrocellulose membranes. […]
# [4] = system: TAK1 downstream signaling (IKK, p38, NFκB) in Hela cells; experiment: TNFα dependent signaling in Hela cells; assay type: cell-based
# Protocol: In order to investigate the effects of HS-206 on cellular signaling, MDA-MB-231 and Hela cells were pretreated with 10 μM HS-206 for 2 h and stimulated with TNFα (FIG. 8).
structure (smiles),measurement,setting,value
"CCCn1c(NC(=O)c2cccc(C(N)=O)c2)nc2ccccc21 [HS-206 (1), (E)-N-(1-Propyl-1,3-dihydro-2H-benzo[d]imidazol-2-ylidene)isophthalamide]",UBC13 phosphorylation by PfPK9,[1],significantly decreased
same,P.b. EEF size,"[2]; 10 μM, 0-24, 24-48 and 0-48 hpi, Huh7",significantly increased
same,number of P.b. EEFs,"[2]; 10 μM, Huh7",not affected
same,number of P.b. EEFs,"[2]; 30 μM, added 0-24 hpi or 0-48 hpi",decreased
same,P.b. EEF size,"[2]; 30 μM, added 0-24 hpi or 24-48 hpi, Huh7",increased
same,number of P.b. EEFs,"[2]; 30 μM, treatment from 24-48 hpi",did not significantly decreased
same,total fluorescence signal from GFP-expressing P.b. EEFs,"[2]; 10 and 30 μM, 48 h post-infection",decreased
same,levels of K63-linked ubiquitinated proteins,[3],dose-dependent decrease
same,TNFα dependent signaling (activation of IKK and p38),"[4]; 10 μM, 2 h pretreatment, TNFα stimulation",inhibited activation of IKK and p38; also recorded: inhibits TNFα dependent signaling
same,dose-dependent inhibition of signaling upon TNFα stimulation,[4]; Hela cells,inhibits p38 and NFκB signaling in a dose-dependent manner; also recorded: dose-dependent inhibition of JNK and NFκB signaling
